# From patent US6737383B1, “Herbicidal oxadiazolidines” (priority 1999, dated 2004)
# Key:
# rice = assay: Test B flood test rice; assay type: in vivo, Oryza sativa
# Procedure, shortened: (§1)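 Plants were grown to the 2-leaf stage before treatment with test chemical, then held in a greenhouse for twelve to sixteen days. Injury was visually rated against untreated controls on a 0–10 scale, where 0 is no effect and 10 is complete control.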
# sugar beet = assay: Test B pre/postemergence sugar beet; assay type: in vivo, Beta vulgaris; details: for Sugarbeets plant response rating: Postemergence; for Plant response rating, Sugarbeets: Preemergence
# Procedure, shortened: (§2)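 Herbicidal effect was estimated by eye on a ten-point control scale after plants spent twelve to sixteen days in a greenhouse following soil or foliar treatment. Foliar sprays targeted plants at one to four leaves; all doses were formulated in a non-phytotoxic solvent with surfactant.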
# crabgrass = assay: Test B pre/postemergence crabgrass; assay type: in vivo, Digitaria sanguinalis; details: for Crabgrass plant response rating: Postemergence; for Plant response rating, Crabgrass: Preemergence
# Procedure, shortened: as §2
# surinam grass = assay: Test B pre/postemergence surinam grass; assay type: in vivo, Brachiaria decumbens; details: for B. signalgrass plant response rating: Postemergence; for Plant response rating, B. signalgrass: Preemergence
# Procedure, shortened: as §2
# cocklebur = assay: Test B pre/postemergence cocklebur; assay type: in vivo, Xanthium strumarium; details: for Cocklebur plant response rating: Postemergence; for Plant response rating, Cocklebur: Preemergence
# Procedure, shortened: as §2
# corn = assay: Test B pre/postemergence corn; assay type: in vivo, Zea mays; details: for Corn plant response rating: Postemergence; for Plant response rating, Corn: Preemergence
# Procedure, shortened: as §2
# wild oat = assay: Test B pre/postemergence wild oat; assay type: in vivo, Avena fatua; details: for Wild oats plant response rating: Postemergence; for Plant response rating, Wild oats: Preemergence
# Procedure, shortened: as §2
# morningglory = assay: Test B pre/postemergence morningglory; assay type: in vivo, Ipomoea hederacea; details: for Morningglory plant response rating: Postemergence; for Plant response rating, Morningglory: Preemergence
# Procedure, shortened: as §2
# blackgrass = assay: Test B pre/postemergence blackgrass; assay type: in vivo, Alopecurus myosuroides; details: for Blackgrass plant response rating: Postemergence; for Plant response rating, Blackgrass: Preemergence
# Procedure, shortened: as §2
# soybean = assay: Test B pre/postemergence soybean; assay type: in vivo, Glycine max; details: for Soybean plant response rating: Postemergence; for Plant response rating, Soybean: Preemergence
# Procedure, shortened: as §2
# rape = assay: Test B pre/postemergence rape; assay type: in vivo, Brassica napus; details: for Rape plant response rating: Postemergence; for Plant response rating, Rape: Preemergence
# Procedure, shortened: as §2
# smallflower flatsedge = assay: Test B flood test smallflower flatsedge; assay type: in vivo, Cyperus difformis
# Procedure, shortened: as §1
# purple nutsedge = assay: Test B pre/postemergence purple nutsedge; assay type: in vivo, Cyperus rotundus; details: for Nutsedge plant response rating: Postemergence; for Plant response rating, Nutsedge: Preemergence
# Procedure, shortened: as §2
# duck salad = assay: Test B flood test duck salad; assay type: in vivo, Heteranthera limosa
# Procedure, shortened: as §1
# pigweed = assay: Test B pre/postemergence pigweed; assay type: in vivo, Amaranthus retroflexus; details: for Redroot pigweed plant response rating: Postemergence; for Plant response rating, Redroot pigweed: Preemergence
# Procedure, shortened: as §2
# bamyardgrass = assay: Test B flood test barnyardgrass; assay type: in vivo, Echinochloa crus-galli
# Procedure, shortened: as §1
# velvetleaf = assay: Test B pre/postemergence velvetleaf; assay type: in vivo, Abutilon theophrasti; details: for Velvetleaf plant response rating: Postemergence; for Plant response rating, Velvetleaf: Preemergence
# Procedure, shortened: as §2
# wheat = assay: Test B pre/postemergence wheat; assay type: in vivo, Triticum aestivum; details: for Wheat plant response rating: Postemergence; for Plant response rating, Wheat: Preemergence
# Procedure, shortened: as §2
# bedstraw = assay: Test B pre/postemergence bedstraw; assay type: in vivo, Galium aparine; details: Postemergence
# Procedure, shortened: as §2
# giant foxtail = assay: Test B pre/postemergence giant foxtail; assay type: in vivo, Setaria faberii; details: for Giant foxtail plant response rating: Postemergence; for Plant response rating, Giant foxtail: Preemergence
# Procedure, shortened: as §2
# [1] = Pre-emergence, Rate 1000 g/ha, scale 0 to 10 (0 no effect, 10 complete control)
# [2] = Rate 125 g/ha, under heading Pre-emergence, flood test species, visual evaluation after twelve to sixteen days
# [3] = Rate 250 g/ha, Pre-emergence (flood test species), scale 0 to 10, 0 is no effect, 10 is complete control
# [4] = Rate 500 g/ha, Pre-emergence section of Table B, 0 to 10 scale (0 no effect, 10 complete control)
# [5] = Rate 125 g/ha, scale of 0 to 10 where 0 is no effect and 10 is complete control
# [6] = Rate 500 g/ha, scale of 0 to 10 where 0 is no effect and 10 is complete control
# [7] = Rate 250 g/ha, scale 0 to 10, 0 is no effect, 10 is complete control
# [8] = Rate 500 g/ha, scale 0 to 10, 0 is no effect, 10 is complete control
# [9] = Rate 1000 g/ha, scale 0 to 10 (0 no effect, 10 complete control)
# [10] = Rate 250 g/ha, scale 0 to 10 (0 no effect, 10 complete control)
smiles,measurement,setting,value
COC(=O)C(CCO)n1c(=O)on(C(=O)N(c2ccccc2)C(C)C)c1=O (centres unmarked) [Compound 678],Rice plant response rating,rice; [1],0
same,"Rice plant response rating (0 to 10 scale, 0 is no effect, 10 is complete control)",rice; [2],0
same,Rice plant response rating,rice; [3],0
same,Rice plant response rating,rice; [4],0
same,Sugarbeets plant response rating,sugar beet; [5],0
same,"Plant response rating, Sugarbeets",sugar beet; [5],0
same,"Plant response rating, Sugarbeets",sugar beet; [6],0
same,Sugarbeets plant response rating,sugar beet; [7],0
same,Sugarbeets plant response rating,sugar beet; [8],0
same,"Plant response rating, Sugarbeets",sugar beet; [9],0
same,Crabgrass plant response rating,crabgrass; [5],0
same,"Plant response rating, Crabgrass",crabgrass; [5],0
same,"Plant response rating, Crabgrass",crabgrass; [10],0
same,"Plant response rating, Crabgrass",crabgrass; [6],1
same,Crabgrass plant response rating,crabgrass; [7],0
same,Crabgrass plant response rating,crabgrass; [8],6
same,"Plant response rating, Crabgrass",crabgrass; [9],3
same,B. signalgrass plant response rating,surinam grass; [5],0
same,B. signalgrass plant response rating,surinam grass; [9],4
same,"Plant response rating, B. signalgrass",surinam grass; [5],0
same,"Plant response rating, B. signalgrass",surinam grass; [10],0
same,"Plant response rating, B. signalgrass",surinam grass; [6],0
same,B. signalgrass plant response rating,surinam grass; [7],0
same,B. signalgrass plant response rating,surinam grass; [8],2
same,"Plant response rating, B. signalgrass",surinam grass; [9],0
same,Cocklebur plant response rating,cocklebur; [5],0
same,Cocklebur plant response rating,cocklebur; [9],3
same,"Plant response rating, Cocklebur",cocklebur; [5],0
same,"Plant response rating, Cocklebur",cocklebur; [10],0
same,"Plant response rating, Cocklebur",cocklebur; [6],0
same,Cocklebur plant response rating,cocklebur; [7],0
same,Cocklebur plant response rating,cocklebur; [8],2
same,"Plant response rating, Cocklebur",cocklebur; [9],0
same,Corn plant response rating,corn; [5],0
same,Corn plant response rating,corn; [9],0
same,"Plant response rating, Corn",corn; [5],0
same,"Plant response rating, Corn",corn; [10],0
same,"Plant response rating, Corn",corn; [6],0
same,Corn plant response rating,corn; [7],0
same,Corn plant response rating,corn; [8],0
same,"Plant response rating, Corn",corn; [9],0
same,Wild oats plant response rating,wild oat; [5],0
same,"Plant response rating, Wild oats",wild oat; [5],0
same,"Plant response rating, Wild oats",wild oat; [6],0
same,Wild oats plant response rating,wild oat; [7],0
same,Wild oats plant response rating,wild oat; [8],0
same,"Plant response rating, Wild oats",wild oat; [9],0
same,Morningglory plant response rating,morningglory; [5],6
same,"Plant response rating, Morningglory",morningglory; [5],0
same,"Plant response rating, Morningglory",morningglory; [6],0
same,Morningglory plant response rating,morningglory; [7],6
same,Morningglory plant response rating,morningglory; [8],8
same,"Plant response rating, Morningglory",morningglory; [9],1
same,Blackgrass plant response rating,blackgrass; [5],0
same,Blackgrass plant response rating,blackgrass; [9],6
same,"Plant response rating, Blackgrass",blackgrass; [5],0
same,"Plant response rating, Blackgrass",blackgrass; [10],0
same,"Plant response rating, Blackgrass",blackgrass; [6],0
same,Blackgrass plant response rating,blackgrass; [7],0
same,Blackgrass plant response rating,blackgrass; [8],3
same,"Plant response rating, Blackgrass",blackgrass; [9],1
same,Soybean plant response rating,soybean; [5],1
same,"Plant response rating, Soybean",soybean; [5],0
same,"Plant response rating, Soybean",soybean; [6],0
same,Soybean plant response rating,soybean; [7],2
same,Soybean plant response rating,soybean; [8],2
same,"Plant response rating, Soybean",soybean; [9],0
same,Rape plant response rating,rape; [5],0
same,Rape plant response rating,rape; [9],2
same,"Plant response rating, Rape",rape; [5],0
same,"Plant response rating, Rape",rape; [6],0
same,Rape plant response rating,rape; [7],0
same,Rape plant response rating,rape; [8],0
same,"Plant response rating, Rape",rape; [9],0
same,S. Flatsedge plant response rating,smallflower flatsedge; [1],0
same,"S. Flatsedge plant response rating (0 to 10 scale, 0 is no effect, 10 is complete control)",smallflower flatsedge; [2],0
same,S. Flatsedge plant response rating,smallflower flatsedge; [3],0
same,S. Flatsedge plant response rating,smallflower flatsedge; [4],0
same,Nutsedge plant response rating,purple nutsedge; [5],0
same,"Plant response rating, Nutsedge",purple nutsedge; [5],0
same,"Plant response rating, Nutsedge",purple nutsedge; [6],0
same,Nutsedge plant response rating,purple nutsedge; [7],0
same,Nutsedge plant response rating,purple nutsedge; [8],0
same,"Plant response rating, Nutsedge",purple nutsedge; [9],0
same,Ducksalad plant response rating,duck salad; [1],0
same,"Ducksalad plant response rating (0 to 10 scale, 0 is no effect, 10 is complete control)",duck salad; [2],0
same,Ducksalad plant response rating,duck salad; [3],0
same,Ducksalad plant response rating,duck salad; [4],0
same,Redroot pigweed plant response rating,pigweed; [5],0
same,Redroot pigweed plant response rating,pigweed; [9],5
same,"Plant response rating, Redroot pigweed",pigweed; [5],0
same,"Plant response rating, Redroot pigweed",pigweed; [6],0
same,Redroot pigweed plant response rating,pigweed; [7],0
same,Redroot pigweed plant response rating,pigweed; [8],2
same,"Plant response rating, Redroot pigweed",pigweed; [9],4
same,Barnyardgrass plant response rating,bamyardgrass; [1],0
same,"Barnyardgrass plant response rating (0 to 10 scale, 0 is no effect, 10 is complete control)",bamyardgrass; [2],0
same,Barnyardgrass plant response rating,bamyardgrass; [3],0
same,Barnyardgrass plant response rating,bamyardgrass; [4],0
same,Velvetleaf plant response rating,velvetleaf; [5],0
same,"Plant response rating, Velvetleaf",velvetleaf; [5],0
same,"Plant response rating, Velvetleaf",velvetleaf; [6],2
same,Velvetleaf plant response rating,velvetleaf; [7],0
same,Velvetleaf plant response rating,velvetleaf; [8],3
same,"Plant response rating, Velvetleaf",velvetleaf; [9],5
same,Wheat plant response rating,wheat; [5],0
same,"Plant response rating, Wheat",wheat; [5],0
same,"Plant response rating, Wheat",wheat; [6],0
same,Wheat plant response rating,wheat; [7],0
same,Wheat plant response rating,wheat; [8],0
same,"Plant response rating, Wheat",wheat; [9],0
same,Bedstraw plant response rating,bedstraw; [5],0
same,Bedstraw plant response rating,bedstraw; [9],0
same,Bedstraw plant response rating,bedstraw; [7],0
same,Bedstraw plant response rating,bedstraw; [8],0
same,Giant foxtail plant response rating,giant foxtail; [5],0
same,Giant foxtail plant response rating,giant foxtail; [9],7
same,"Plant response rating, Giant foxtail",giant foxtail; [5],0
same,"Plant response rating, Giant foxtail",giant foxtail; [6],4
same,Giant foxtail plant response rating,giant foxtail; [7],1
same,Giant foxtail plant response rating,giant foxtail; [8],6
same,"Plant response rating, Giant foxtail",giant foxtail; [9],6
